Measured values published in patent publication US7419785B2, “Methods and compositions in breast cancer diagnosis and therapeutics” (Baylor College of Medicine, priority 2001, dated 2008).

How the values were obtained:
breast cancer = conditions: patients with a history of ADH receiving tamoxifen (Fisher et al., 1998); cited from earlier work
[1] = tested on: WT ERα and the A908G ERα mutation; assay: Saturation binding Scatchard analyses; design: species or system human
[2] = tested on: MCF-7 cells stably transfected with the mutant ER (A908G, Lys303Arg); assay: Cell growth of MCF-7 clones stably transfected with the mutant ER in response to estradiol; format: cell-based, human; conditions: cells expressing the ERα mutant, calculated from the growth curves
Procedure: (§1) The medium was replaced every 48 h and the cells were harvested and counted on days 2, 4, 6, and 8, respectively. Cell number X 10^4 is shown.
(§2) The WT ER expression construct was prepared in the pcDNAI vector as described previously (Fuqua et al., 1995). Site directed mutagenesis of this construct was then utilized to generate the A908G transition and the entire coding sequence of ER was verified by dideoxysequence analysis in this clone. The generation of stable transfectants was performed as described by Oesterreich et al. (1993) using cotransfection with the G418-selectable expression vector pSVneo at a ration of 25:1 with the ER plasmids into MCF-7 breast cancer cells. […] Two to three-fold elevated levels of total ER protein were detected in the two WT ER and the three Var clones. […] Furthermore, the relative levels of WT or Var sequences were determined by genomic sequence analysis as described above; the ER Var transfectants contained both WT nucleotide (A) and Var nucleotide (G) sequence in approximately equal ratios on the sequencing gels.
(§3) The proliferative response to hormones in breast cancer cell transfectants containing the mutation was tested to determine if this ER mutation confers a selective advantage. […] This cell line was chosen because it was determined that WT ERα was expressed along with the mutant in the original 2/4 typical hyperplastic lesions which were examined. […]

[3] = tested on: MCF-7 breast cancer cells; assay: Cell growth of untransfected parental MCF-7 cells in response to estradiol; format: cell-based, human; conditions: calculated from the growth curves
Procedure: as §1, §2, §3

| Structure (SMILES) | decrease in breast cancer incidence (breast cancer) | difference in affinity between WT ERα and the A908G ERα mutation [1] | doubling time ([2]; 10^−9 M of hormone) | doubling time ([2]; 10^−12 M of hormone) | doubling time ([3]; MCF-7 cells in 10^−9 M estradiol) | doubling time ([3]; MCF-7 cells in 10^−12 M estradiol) |
| --- | --- | --- | --- | --- | --- | --- |
| CC/C(=C(\c1ccccc1)c1ccc(OCCN(C)C)cc1)c1ccccc1 [tamoxifen] | 85% | nor were there differences in affinity |  |  |  |  |
| C[C@]12CC[C@@H]3c4ccc(O)cc4CC[C@H]3[C@@H]1CC[C@@H]2O [estradiol] |  |  | 1.3 days | 1.3 days | 1.3 days | 2.2 days |
